Assays:
[1] = test system: cross-links representative of AGEs; assay: AGE crosslink breaking, sandwich enzyme-linked immunoabsorbent assay; settings: pre-formed protein-sugar cross-links in multi-well plates; buffer control
Experimental: This example describes the efficacy of a compound of the invention for breaking crosslinks associated with AGEs using a sandwich enzyme-linked immunoabsorbent assay.
A mixture of protein and sugar was incubated to form cross-links representative of AGEs and was placed in multi-well plates. The plates were then treated with either 2-amino-4,5-dimethylthiazole HCl or buffer. After treatment, the plates were rinsed to remove any free protein liberated by cross-link breakage. An antibody reactive to the protein was then added to the plates to provide quantitative levels of protein within the plate.

AGE formation = AGE formation inhibition: protein and sugar incubated at 37° C., gel formation; settings: control tube forms a gel
Experimental: This example describes the efficacy of a compound of the invention for inhibiting AGE formation.
A control tube, containing protein and sugar, forms a gel with little or no remaining liquid when incubated at 37° C. Such a gel is indicative of extensive crosslinking associated with glycation.

glucose oxidase = molecular target: T1, glucose oxidase (Aspergillus niger, UniProt P13006); assay: glucose oxidase inhibition, commercially available glucose oxidase kit; type: biochemical
T1 construct: purchased
T1 sequence (P13006 17-605, species assumed): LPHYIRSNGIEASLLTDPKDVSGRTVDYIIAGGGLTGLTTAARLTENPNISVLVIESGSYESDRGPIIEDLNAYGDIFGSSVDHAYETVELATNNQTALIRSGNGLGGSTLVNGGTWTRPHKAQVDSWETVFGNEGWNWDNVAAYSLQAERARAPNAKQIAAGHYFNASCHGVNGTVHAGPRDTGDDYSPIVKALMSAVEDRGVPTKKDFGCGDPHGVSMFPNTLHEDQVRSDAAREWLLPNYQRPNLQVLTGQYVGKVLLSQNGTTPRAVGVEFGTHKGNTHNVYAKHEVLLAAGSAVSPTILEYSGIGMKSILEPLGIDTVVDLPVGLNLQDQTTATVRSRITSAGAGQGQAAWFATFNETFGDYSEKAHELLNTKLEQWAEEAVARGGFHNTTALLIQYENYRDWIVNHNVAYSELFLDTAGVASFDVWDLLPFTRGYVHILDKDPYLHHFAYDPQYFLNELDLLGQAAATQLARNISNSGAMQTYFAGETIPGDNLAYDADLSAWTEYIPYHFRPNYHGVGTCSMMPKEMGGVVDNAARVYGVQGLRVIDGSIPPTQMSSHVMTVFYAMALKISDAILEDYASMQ
From the text: This example describes the effectiveness of a compound of the invention for inhibiting the enzyme glucose oxidase.
To test the efficacy of 2-amino-4,5-dimethylthiazole HCl for the inhibition of glucose oxidase, a commercially available glucose oxidase kit was used.

SMILES: Cc1nc(N)sc1C.Cl [2-amino-4,5-dimethylthiazole HCl, 2-amino-4,5-dimethylthiazole hydrochloride]
- antibody bound in the plate as compared to the control plate [1]: less antibody bound
- state of protein and sugar mixture (gel indicates crosslinking associated with glycation) (AGE formation): remained liquid
- reduction of production of H2O2 as compared to a control sample (glucose oxidase): greater than 60%

From patent publication US20050137239A1, “Thiazole derivatives” (priority 2003, published 2005)
